Experimental data: patent US4994468A, “Imidazoquinolone derivatives” (Kyowa Hakko Kogyo Co., Ltd., priority 1989, dated 1991)
pIC50: −log10 of the molar value.

Experiments:
[1] = system: trachea strips of passively sensitized guinea pigs, antigen (EWA) induced contraction; assay: Effects on passive Schultz-Dale reaction (broncho-dilatory effects); assay type: cell-based, guinea pig (Hartley male); conditions: Cavia porcellus; concentration of 50% relaxation; sensitized guinea pig trachea, antigen EWA 1 μg/ml, cumulative addition, 37° C.
Protocol: (a) Effects on passive Schultz-Dale reaction (broncho-dilatory effects). Guinea pigs were passively sensitized as follows. Hartley male guinea pigs weighing 350 to 500 g were injected intraperitoneally with rabbit anti-egg albumin (EWA) serum prepared by the method of Eda et al. [Folia pharmacol., Japon 66, 237, (1970)]. After 24 hours, the guinea pigs were stunned and exsanguinated, and then trachea was excised. The zig-zag strips of the […] prepared by the method of Emmerson and Mackay [J. Pharm. Pharmacol., 31, 798, (1979)]. The strips were suspended in Krebs-Henseleit solution at 37° C. under aeration of a mixed gas of 95% oxygen and 5% carbon dioxide, and incubated for one hour. Antigen (EWA) was then introduced in the solution (final concentration; 1 μg/ml), and the contraction was measured by isotonictrasducer (TD-112s, made by Nihon Kohden K.K., Japan) and recorded on a recorder (Type 3066, made by Yokogawa-Hokushin Denki, K.K. Japan). After the contraction curves reached plateau, the compounds were successively added in order to get cumulative concentration-relaxation curves.

[2] = system: passive cutaneous anaphylaxis (PCA); assay: Antiallergic effects: 48 hour-homologous passive cutaneous anaphylaxis (PCA) test in rats; assay type: in vivo, rat (Wistar male); conditions: Rattus norvegicus; minimum effective dosage: suppression rate 50% or higher in at least one of three rats; oral, 1 hour before PCA challenge; read-out: Anti-allergic effect (MED)
Protocol: Antiallergic effects of compounds were assessed by passive cutaneous anaphylaxis (PCA) test in rats. Wistar male rats weighing 180 to 220 g were used for collection of antiserum and Wistar male rats weighing 120 to 140 g for PCA test.
(i) Preparation of anti EWA serum in rat
Anti-EWA rat serum was prepared by the method of Stotland and Share [Can. J. Physiol. Pharmacol., 52, 1114, (1974)] as follows. That is, 1 mg of EWA, 20 mg of aluminium hydroxide gel and 0.5 ml of mixed vaccine of pertussis, diphtheria and tetanus were mixed, and the mixture was subcutaneously injected in 4 portions into the foot part of the rats. After 14 days, the blood of sensitized rats was collected from carotid artery. The serum was separated by centrifugation from collected blood, and kept at -80° C. Titer of the 48 hour homologous PCA tests of the serum was 1:32.
(ii) Effects on 48 hour-homologous PCA tests in rats
Groups each consisting of three male rats were used, and 0.05 ml of anti-EWA serum diluted to 8 times with a physiological saline, was sensitized passively by giving intradermal injection at two depilated points on the dorsum. After 47 hours, the test compound or its solvent (saline or CMC solution) was orally administrated, and 1 hour thereafter, PCA reaction was induced by intravenous administration of 1% Evan's blue-saline (0.5 ml/100 g) containing 2 mg of […]. After 30 minutes, animals were sacrificed by bleeding and dorsal skin was stripped to determin the extravasated dye at blue-dyed reaction site, by the method of Katayama et al. [Microbiol. Immunol., 22, 89 (1978)]. The blue-dyed spots were scissored out and placed in a test tube containing 1 ml of 1N sodium hydroxide and incubated at 37° C. for 24 hours. 9 ml of a mixture of 0.6N phosphate:acetone (5:13) was added thereto. After shaking, the mixture was centrifuged at 2500 rpm for 10 minutes. A supernatant was separated, and extravasated dye in the supernatant was quantified by measuring absorbance of the supernatant at 620 nm. Prepared calibration curve was used for the quantification. An average of measurements at the two positions was made a value for one animal, and suppression rate of the one animal was calculated by following equation: [formula]

[3] = system: experimental asthma in passively sensitized guinea pigs; assay: Effects on experimental asthma; assay type: in vivo, guinea pig (Hartley male); conditions: 50 mg/kg orally, one hour before aerosol antigen 1.5% EWA; mean + SEM of 5 or 10 animals; control 254 ± 18
Protocol: (c) Effects on experimental asthma Guinea pigs were passively sensitized as follows. Hartley male guinea pigs weighing 350 to 500 g were intraperitoneally injected with 1 ml of rabbit EWA serum prepared by the method of Eda et al. [Folia pharmacol., Japon, 66, 237 (1970)]. The animals were treated with intraperitoneal injection of diphenhydramine (20 mg/kg) and propranolol (5 mg/kg), 30 minutes before administration of test compounds. 17 hours after the sensitization, the test compounds (50 mg/kg) were orally administrated to sensitized animals. After one hour from the administration of the test compounds, the guinea pigs were placed in plastic observation box and were exposed to an aerosal antigen of 1.5% EWA. The time until the onset of respiratory […] symptom [collapse time (second)] was measured as a result of experimental asthma.

Acute toxicity = conditions: mouse, in vivo; po, mortality for seven days, male dd-mice
Protocol: The compounds were orally administrated (po: 300 mg/kg) to male dd-mice weighing 20 to 25 g. LD50 was determined by observing the mortality for seven days after the administration.

| Structure (SMILES) | pIC50 [1] | minimal effective dose [2] [mg/kg] | Experimental asthma (collapse time) [3] [s] | LD50 at 168 h (Acute toxicity) [mg/kg] |
| --- | --- | --- | --- | --- |
| CCCCn1c(=O)c2ncn(C)c2c2ccccc21 [Compound 1, 5-n-Butyl-1-methyl-1H,5H-imidazo[4,5-c]quinolin-4-one] | 8.47 | < 10 | 517 ± 37 | > 300 |
| Cn1cnc2c(=O)n(Cc3ccco3)c3ccccc3c21 [Compound 3, 5-Furfuryl-1-methyl-1H,5H-imidazo[4,5-c]quinolin-4-one] | < 4.70 | > 100 |  | > 300 |
| Cn1cnc2c(=O)n(C)c3ccccc3c21 [Compound 4, 1,5-Dimethyl-1H,5H-imidazo[4,5-c]quinolin-4-one] | < 4.70 | > 10 |  | > 200 |
| CCn1c(=O)c2ncn(C)c2c2ccccc21 [Compound 5, 5-Ethyl-1-methyl-1H,5H-imidazo[4,5-c]quinolin-4-one] | < 4.70 | < 10 | 519 ± 78 | > 100 |
| CCCn1c(=O)c2ncn(C)c2c2ccccc21 [Compound 6, 1-Methyl-5-n-propyl-1H,5H-imidazo[4,5-c]quinolin-4-one] | > 4.70 | < 10 | 600 ± 0 | > 200 |
| CCCCn1c(=O)c2ncn(Cc3ccccc3)c2c2ccccc21 [Compound 7, 1-Benzyl-5-n-butyl-1H,5H-imidazo[4,5-c]quinolin-4-one] | < 4.70 | > 100 |  | > 300 |
| CCCCn1c(=O)c2nc[nH]c2c2ccccc21 [Compound 8, 5-n-Butyl-1H,5H-imidazo[4,5-c]quinolin-4-one] | < 4.70 | > 100 |  | > 300 |
| Cn1cnc2c(=O)n(CC(=O)O)c3ccccc3c21 [Compound 9, 5-Carboxymethyl-1-methyl-1H,5H-imidazo[4,5-c]quinolin-4-one] | < 4.70 | > 100 | 532 ± 31 | > 300 |
| CCCCn1c(=O)c2ncn(CC)c2c2ccccc21.Cl [Compound 16W, 5-n-Butyl-1-ethyl-1H,5H-imidazo[4,5-c]quinolin-4-one hydrochloride] | 5.39 | > 100 | 422 ± 43 | > 300 |
| CCCCn1c(=O)c2ncn(CCC)c2c2ccccc21.Cl [Compound 17W, 5-n-Butyl-1-n-propyl-1H,5H-imidazo[4,5-c]quinolin-4-one hydrochloride] | 5.62 | > 100 | 484 ± 31 | > 300 |
| CCCCn1c(=O)c2ncn(C(C)C)c2c2ccccc21.Cl [Compound 18W, 5-n-Butyl-1-isopropyl-1H,5H-imidazo[4,5-c]quinolin-4-one hydrochloride] | 5.82 | > 100 | 425 ± 50 | > 300 |
| CCCCn1cnc2c(=O)n(CCCC)c3ccccc3c21.Cl [Compound 19W, 1,5-Di-n-butyl-1H,5H-imidazo[4,5-c]quinolin-4-one hydrochloride] | 5.19 | > 100 | 503 ± 44 | > 300 |
| CCCCn1c(=O)c2ncn(C)c2c2ccc(Cl)cc21.Cl [Compound 24W, 5-n-Butyl-7-chloro-1-methyl-1H,5H-imidazo[4,5-c]quinolin-4-one hydrochloride] | 6.05 | > 100 |  | > 300 |
| CCCCn1c(=O)c2ncn(C)c2c2cc(C)ccc21 [Compound 26, 5-n-Butyl-1,8-dimethyl-1H,5H-imidazo[4,5-c]quinolin-4-one] | 5.01 | 100 |  | > 300 |
| CCCCn1c(=O)c2ncn(C)c2c2c(C)cccc21.Cl [Compound 27W, 5-n-Butyl-1,9-dimethyl-1H,5H-imidazo[4,5-c]quinolin-4-one hydrochloride] | < 4.70 | 100 |  | > 300 |
| CCCCn1c(=O)c2nc(S)n(C)c2c2ccccc21 [Compound 31, 5-n-Butyl-1-methyl-2-mercapto-1H,5H-imidazo[4,5-c] quinolin-4-one] | 5.02 | > 100 | 284 ± 48 | > 300 |
| CCCCn1c(=O)c2nnn(C)c2c2ccccc21 [Compound 32, 5-n-Butyl-1-methyl-1H,5H-triazolo[4,5-c]quinolin-4-one] | 5.80 | > 100 |  | > 300 |
| CCCn1c(=O)[nH]c(=O)c2[nH]cnc21 [Enprofylline, reference compound] | 5.00 | ≤ 100 |  |  |
| CC(C)C(=O)c1c(C(C)C)nn2ccccc12 [KC 404, reference compound] | 6.07 | > 100 |  |  |
| Cn1c(=O)c2[nH]cnc2n(C)c1=O [Theophylline, reference compound] |  |  | 414 ± 47 |  |
